From patent US20040029889A1, “Heteroaryl alkyl piperazine derivatives as fatty acid oxidation inhibitors” (priority 2000, published 2004)

Assays:
[1] = system: mitochondrial fatty acid oxidation using palmitoyl CoA as substrate; assay: Palmitoyl CoA oxidation in isolated rat heart mitochondria; assay type: biochemical; conditions: 1-C14 palmitoyl CoA substrate, 15 min at 30° C., vs DMSO control; for Inhibition of mitochondrial fatty acid oxidation, % of Control, 100 μm (%): 100 μm compound; for Inhibition of mitochondrial fatty acid oxidation, % of Control, 50 μm (%): 50 μm compound
Experimental: Rat heart mitochondria were isolated by the method of Nedergard and Cannon (Methods in Enzymol. 55, 3, 1979).
Palmitoyl CoA oxidation—The Palmityl CoA oxidation was carried out in a total volume of 100 micro liters containing the following agents: 110 mM KCl, 33 mM Tris buffer at pH 8, 2 mM KPi, 2 MM MgCl2, 0.1 MM EDTA, 14.7 microM defatted BSA, 0.5 mM malic acid, 13 mM carnitine, 1 mM ADP, 52 micrograms of mitochondrial protein, and 16 microM 1-C14 palmitoyl CoA (Sp. Activity 60 mCi/mmole; 20 microCi/ml, using 5 microliters per assay). The compounds of this invention were added in a DMSO solution at the following concentrations: 100 microM, and 50 microM. In each assay, a DMSO control was used. After 15 min at 30° C., the enzymatic reaction was centrifuged (20,000 g for 1 min), and 70 microliters of the supernatant was added to an activated reverse phase silicic acid column (approximately 0.5 ml of silicic acid). The column was eluted with 2 ml of water, and 0.5 ml of the eluent was used for scintillation counting to determine the amount of C^14 trapped as C^14 bicarbonate ion.

[2] = Metabolic stability in human liver S-9 fractions; assay type: in vitro ADME; conditions: % parent remaining after 30 min at 37 C divided by average % ranolazine remaining (57%), >1.2 better, 0.8-1.2 equivalent, <0.8 less stable than ranolazine
Experimental: Metabolic Stability: As a measure of metabolic stability the compounds of this invention were incubated with human liver S-9 microsomal fractions. After, 30 minutes at 37 C, the amount of parent drug remaining was determined using LC-mass spec. The response factors for each compound was determined by establishing a standard curve and using an internal standard during the analysis of the samples. An average of five experiments for percentage of ranolazine remaining at the 30 minute time point is 57%. The compounds of this invention were assayed as described in the protocol below and the percentage of parent remaining was divided by the average % of ranolazine remaining (57%) affording a metabolic stability factor. A compound with a stability number greater than 1.2 has a better stability than ranolazine in the liver S-9 assay. A compound with a stability number between 1.2 and 0.8 has an equivalent stability in the liver S-9 assay.
The purpose of this experiment is to compare the percentages remaining for compounds of this invention with the percentage remaining for ranolazine after 30 minutes of incubation with human liver S9 fractions.
The following reagents were used; Potassium phosphate, 0.5M pH 7.4 (incubation buffer), kept at room temperature; 0.05M MgCl2 kept at 4° C.; β-Nicotinamide adenine dinucleotide phosphate, tetrasodium salt, reduced form (NADPH), 0.02M solution in water (˜16.6 mg/mL) from Sigma Lot # 79H7044 prepared on day of use. 1 mM of ranolazine or Compounds 43, 45, 47, 52, 70, 74, 76, 78, and 80 in ACN further diluted to obtain 100 μM in 10% ACN; Human S9 stock: 20 mg/mL from Gentest.
Incubation mixtures were prepared as follows:
Combine all components with incubation buffer and re-pipette 200 μL/tube+25 μL of the compound being tested along with 25 μL of S-9.
After 5 min of pre-incubation at 37° C., at 0 and 30 min after starting the reaction, a 50 μl aliquot of the incubation mixture was removed and added to 100 μL of 9:1 acetonitrile: methanol containing the internal standard.
The mixture was centrifuged and a 100 μL aliquot of the supernatant was diluted in 1 mL of solvent C (0.1% Formic Acid in water). Then samples were analyzed for change between the ratio of compound to internal standard at time zero and 30 minutes by LC/MS (injected 10 μL).
Samples were analyzed for the starting compounds and potential metabolite/s by LC/MS using an internal standard and an ODS-C18 column with a flow rate of 0.25 ml/min.

Cc1nc2cc(OCC(O)CN3CCN(CC(=O)Nc4c(C)cccc4C)CC3)ccc2s1 (centres unmarked) [Compound 45]
Inhibition of mitochondrial fatty acid oxidation, % of Control, 100 μm (%) [1]: 87%
Liver S9 Stability Factor [2]: 0.8

Cc1cccc(C)c1NC(=O)CN1CCN(CC(O)COc2ccc3ncccc3c2)CC1 (centres unmarked) [Compound 78]
Inhibition of mitochondrial fatty acid oxidation, % of Control, 100 μm (%) [1]: 42%
Liver S9 Stability Factor [2]: 0.6

Cc1cccc(C)c1NC(=O)CN1CCN(CC(O)COc2ccc3oc(-c4ccccc4)nc3c2)CC1 (centres unmarked) [Compound 60, N-(2,6-dimethylphenyl)-2-{4-[2-hydroxy-3-(2-phenyl-benzoxazol-5-yloxy)-propyl)-piperazin-1-yl}acetamide]
Inhibition of mitochondrial fatty acid oxidation, % of Control, 50 μm (%) [1]: 61%

Cc1cccc(C)c1NC(=O)CN1CCN(CC(O)COc2cnc3ccccc3n2)CC1 (centres unmarked) [Compound 70, N-(2,6-dimethylphenyl)-2-{4-[2-hydroxy-3-(quinoxalin-2-yloxy)-propyl]-piperazin-1-yl}acetamide]
Liver S9 Stability Factor [2]: 0.1

Cc1cccc(C)c1NC(=O)CN1CCN(CC(O)COc2cccc3[nH]c(C(N)=O)cc23)CC1 (centres unmarked) [Compound 46]
Inhibition of mitochondrial fatty acid oxidation, % of Control, 100 μm (%) [1]: 61%
Liver S9 Stability Factor [2]: 1.1

Cc1cccc(C)c1NC(=O)CN1CCN(CC(O)COc2nc3ccccc3s2)CC1 (centres unmarked) [Compound 43, 2-{4-[3-(benzothiazol-2-yloxy)-2-hydroxy-propyl]-piperazin-1-yl}-N-(2,6-dimethylphenyl)acetamide]
Inhibition of mitochondrial fatty acid oxidation, % of Control, 100 μm (%) [1]: 21%
Liver S9 Stability Factor [2]: 0.6

Cc1nc2cc(OCC(O)CN3CCN(CC(=O)Nc4c(C)cccc4C)C(=O)C3)ccc2s1 (centres unmarked) [Compound 64, N-(2,6-dimethylphenyl)-2-{4-[2-hydroxy-3-(2-methyl-benzothiazol-5-yloxy)-propyl]-2-oxo-piperazin-1-yl}acetamide]
Inhibition of mitochondrial fatty acid oxidation, % of Control, 100 μm (%) [1]: 41%

Cc1nc2ccc(OCC(O)CN3CCN(CC(=O)Nc4c(C)cccc4C)CC3)cc2s1 (centres unmarked) [Compound 49, N-(2,6-dimethylphenyl)-2-{4-[2-hydroxy-3-(2-methyl-benzothiazol-6-yloxy)-propyl]-piperazin-1-yl}aceamide]
Inhibition of mitochondrial fatty acid oxidation, % of Control, 100 μm (%) [1]: 3%

Cc1nc2cc(OCC(O)CN3CCN(CC(=O)Nc4ccc(O)cc4)CC3)ccc2s1 (centres unmarked) [Compound 54, 2-{14-[2-hydroxy-3-(2-methyl-benzothiazol-5-yloxy)-propyl]-piperazin-1-yl}-N-(4-hydroxy-phenyl)acetamide]
Inhibition of mitochondrial fatty acid oxidation, % of Control, 100 μm (%) [1]: 81%

Cc1cccc(C)c1NC(=O)CN1CCN(CC(O)CNc2nc3ccccc3o2)CC1 (centres unmarked) [Compound 82, 2-{4-[3-(benzoxazol-2-ylamino)-2-hydroxypropyl]piperazinyl}-N-(2,6-dimethylphenyl)acetamide]
Inhibition of mitochondrial fatty acid oxidation, % of Control, 100 μm (%) [1]: 22%

Cc1cccc(C)c1NC(=O)CN1CCN(CC(O)COc2ccc3oc(-c4cccc(C(F)(F)F)c4)nc3c2)CC1 (centres unmarked) [Compound 7, N-(2,6-dimethyl-phenyl)-2-(4-{2-hydroxy-3-[2-(3-trifluoromethylphenyl)benzoxazol-5-yloxy]-propyl}-piperazin-1-yl)acetamide]
Inhibition of mitochondrial fatty acid oxidation, % of Control, 50 μm (%) [1]: 77%

Cc1cccc(C)c1NC(=O)CN1CCN(CC(O)COc2cccc3cnccc23)CC1 (centres unmarked) [Compound 76, N-(2,6-dimethylphenyl)-2-{4-[2-hydroxy-3-(isoquinolin-5-yloxy)-propyl]-piperazin-1-yl}acetamide]
Inhibition of mitochondrial fatty acid oxidation, % of Control, 100 μm (%) [1]: 26%
Liver S9 Stability Factor [2]: 0.8

Cc1cccc(C)c1NC(=O)CN1CCN(CC(O)CNc2nc3ccccc3s2)CC1 (centres unmarked) [Compound 39, 2-{4-[3-(benzothiazol-2-ylamino)-2-hydroxypropyl]piperazinyl}-N-(2,6-dimethylphenyl)acetamide]
Inhibition of mitochondrial fatty acid oxidation, % of Control, 100 μm (%) [1]: 27%

Cc1cccc(C)c1NC(=O)CN1CCN(CC(O)COc2ccnc3ccccc23)CC1 (centres unmarked) [Compound 74, N-(2,6-dimethylphenyl)-2-{4-[2-hydroxy-3-(quinolin-4-yloxy)-propyl]-piperazin-1-yl}acetamide]
Inhibition of mitochondrial fatty acid oxidation, % of Control, 100 μm (%) [1]: 12%
Liver S9 Stability Factor [2]: 1.0

Cc1cccc(C)c1NC(=O)CN1CCN(CC(O)COc2ccc3oc(-c4ccc(C(F)(F)F)cc4)nc3c2)CC1 (centres unmarked) [Compound 68, N-(2,6-dimethylphenyl)-2-(4-{2-hydroxy-3-[2-(4-trifluoromethyl-phenyl)-benzoxazol-5-yloxy]-propyl}-piperazin-1-yl)acetamide]
Inhibition of mitochondrial fatty acid oxidation, % of Control, 50 μm (%) [1]: 68%

Cc1cccc(C)c1NC(=O)CN1CCN(CC(O)COc2cccc3nc(-c4ccccc4)sc23)CC1 (centres unmarked) [Compound 62]
Inhibition of mitochondrial fatty acid oxidation, % of Control, 50 μm (%) [1]: 62%

Cc1nc2cc(OCC(O)CN3C(C)CN(CC(=O)Nc4c(C)cccc4C)CC3C)ccc2s1 (centres unmarked) [Compound 52, N-(2,6-dimethylphenyl)-2-{4-[2-hydroxy-3-(2-methyl-benzothiazol-5-yloxy)-propyl]-3,5-dimethyl-piperazine-1-yl}acetamide]
Inhibition of mitochondrial fatty acid oxidation, % of Control, 100 μm (%) [1]: 95%
Liver S9 Stability Factor [2]: 0.5

Cc1ccc2ccc(OCC(O)CN3CCN(CC(=O)Nc4c(C)cccc4C)CC3)cc2n1 (centres unmarked) [Compound 80, N-(2,6-dimethylphenyl)-2-{4-[2-hydroxy-3-(2-methyl-quinolin-7-yloxy)-propyl]-piperazin-1-yl}acetamide]
Inhibition of mitochondrial fatty acid oxidation, % of Control, 100 μm (%) [1]: 22%
Liver S9 Stability Factor [2]: 0.5

Cc1cccc(C)c1NC(=O)CN1CCN(CC(O)COc2cccnc2)CC1 (centres unmarked) [Compound 72, N-(2,6-dimethylphenyl)-2-{4-[2-hydroxy-3-(pyridin-3-yloxy)-propyl]-piperazin-1-yl}acetamide]
Inhibition of mitochondrial fatty acid oxidation, % of Control, 100 μm (%) [1]: 8%

Cc1cccc(C)c1NC(=O)CN1CCN(CC(O)COc2ccc3ncsc3c2)CC1 (centres unmarked) [Compound 47, 2-{4-[3-(benzothiazol-6-yloxy)2-hydroxy-propyl]-piperazin-1-yl}-N-(2,6-dimethylphenyl)-acetamide]
Inhibition of mitochondrial fatty acid oxidation, % of Control, 100 μm (%) [1]: 70%
Liver S9 Stability Factor [2]: 1.5
